Legend:
[1] = system: monoamine oxidase enzyme Type-B (MAO-B); conditions: cited from earlier work
[2] = 80° C.-100° C., presence of a chloride ion source and low pH

| Structure (SMILES) | MAO-B inhibitory activity [1] | chlorination of the triple bond to form chlorinated allyl aminoindans (2-chloro and cis-3-chloro) [2] | degree of selectivity for MAO-B inhibition ([1]; compared with the corresponding racemic form) |
| --- | --- | --- | --- |
| C#CCN[C@H]1CCc2ccccc21 [(S)-PAI] | extremely low MAO-B inhibitory activity |  |  |
| C#CCN[C@@H]1CCc2ccccc21.CS(=O)(=O)O [rasagiline mesylate, N-propargyl-1(R)-aminoindan mesylate] |  | susceptible to chlorination |  |
| C#CCN[C@@H]1CCc2ccccc21 [(R)-PAI, N-propargyl-1(R)-aminoindan] | active MAO-B inhibitor |  | surprisingly higher than that of the corresponding racemic form |
